Test results published in paper PMC3928365, “Species-Selective Killing of Bacteria by Antimicrobial Peptide-PNAs” (PLoS ONE, 2014).

What was measured:
Assay in all cases: Antibiotic disc susceptibility testing (BSAC method)
Details in all cases: antibiotic disks (Oxoid), amount per disc per antibiotic (5-30 μg)
K. pneumoniae = assay type: cell-based, Klebsiella pneumoniae
Description: (§1) Strains were tested with twenty different antibiotic disks (Oxoid, UK) representing the major classes of antimicrobial compounds. Tests were done according to the standardized disc susceptibility testing method of the British Society for Antimicrobial Chemotherapy, [37]. The minimum inhibitory concentration (MIC) of the peptide-PNA conjugants were determined using a method modified from Hacek et al and Friedman et al: Peptide-PNA conjugants, obtained as lyophilized powder (Panagene, Korea), were dissolved in ddH20. MIC assays were performed in an ultra low-bind (Costar, UK) polystyrene 96-well plate format in a final volume of 150 µl MMLB. An extended gradient of peptide-PNA concentrations was created by combining five sets of twofold serial dilutions from four starting concentrations (10, 4.8, 3.2 […]); giving 55 final peptide-PNA concentrations which extended over five rows of the 96-well plate. All cultures were incubated at 35°C for 16 h without shaking or agitation. Each peptide-PNA MIC calculation was performed in triplicate, each replicate representing a different starting colony. Mixed-culture experiments were conducted as above with a 1×10^4 CFU/ml starting inoculum. For growth curve analysis, 200 µl cultures were grown in a BioTek PowerWave HT spectrophotometer, under constant agitation at 37°C in a 96-well plate covered with a breathable film. Growth (OD550) was monitored every 5 mins, each experiment was performed in triplicate.

E. coli = assay type: cell-based, Escherichia coli
Description: as §1

S. Typhimurium = assay type: cell-based, Salmonella enterica serovar Typhimurium
Description: as §1

B. subtilis = assay type: cell-based, Bacillus subtilis
Description: as §1, with “For growth curve analysis, 200 µl cultures were grown in a BioTek PowerWave HT spectrophotometer, under constant agitation at 37°C in a 96-well plate covered with a breathable film.” left out

Molecule	Sensitive (S)/Resistant (R), K. pneumoniae (K. pneumoniae)	Sensitive (S)/Resistant (R), E. coli (E. coli)	Sensitive (S)/Resistant (R), S. Typhimurium (S. Typhimurium)	Sensitive (S)/Resistant (R), B. subtilis (B. subtilis)
NCC[C@H](O)C(=O)N[C@@H]1C[C@H](N)[C@@H](O[C@H]2O[C@H](CN)[C@@H](O)[C@H](O)[C@H]2O)[C@H](O)[C@H]1O[C@H]1O[C@H](CO)[C@@H](O)[C@H](N)[C@H]1O [Amikacin]	S	S	S	
CC1(C)S[C@@H]2[C@H](NC(=O)[C@H](N)c3ccc(O)cc3)C(=O)N2[C@H]1C(=O)O [Amoxicillin]	R	S	S	
CC[C@H]1OC(=O)[C@H](C)[C@@H](O[C@H]2C[C@@](C)(OC)[C@@H](O)[C@H](C)O2)[C@H](C)[C@@H](O[C@@H]2O[C@H](C)C[C@H](N(C)C)[C@H]2O)[C@](C)(O)C[C@@H](C)CN(C)[C@H](C)[C@@H](O)[C@]1(C)O [Azithromycin]	R	R	R	
CC1=C(C(=O)O)N2C(=O)[C@@H](NC(=O)[C@H](N)c3ccccc3)[C@H]2SC1 [Cefalexin]	S	S	S	
CO/N=C(\C(=O)N[C@@H]1C(=O)N2C(C(=O)O)=C(COC(C)=O)CS[C@H]12)c1csc(N)n1 [Cefotaxime]	S	S	S	
CO/N=C(\C(=O)N[C@@H]1C(=O)N2C(C(=O)O)=C(COC(N)=O)CS[C@H]12)c1ccco1 [Cefuroxime]	S	S	S	
CCC[C@@H]1C[C@@H](C(=O)N[C@@H]([C@H]2O[C@H](SC)[C@H](O)[C@@H](O)[C@H]2O)[C@H](C)Cl)N(C)C1 [Clindamycin]	R	R	R	
CC[C@H]1OC(=O)[C@H](C)[C@@H](O[C@H]2C[C@@](C)(OC)[C@@H](O)[C@H](C)O2)[C@H](C)[C@@H](O[C@@H]2O[C@H](C)C[C@H](N(C)C)[C@H]2O)[C@](C)(O)C[C@@H](C)C(=O)[C@H](C)[C@@H](O)[C@]1(C)O [Erythromycin]	R	R	R	
CN1CCN(c2c(F)cc3c(=O)c(C(=O)O)cn(CCF)c3c2F)CC1 [Fleroxacin]	S	S		
CNC(C)C1CCC(N)C(OC2C(N)CC(N)C(OC3OCC(C)(O)C(NC)C3O)C2O)O1 (stereo not shown) [Gentamicin]	R	S	S	
C[C@@H](O)[C@H]1C(=O)N2C(C(=O)O)=C(SCCN=CN)C[C@H]12 [Imipenem]	S	S	S	
CCC[C@@H]1C[C@@H](C(=O)N[C@@H]([C@H]2O[C@H](SC)[C@H](O)[C@@H](O)[C@H]2O)[C@@H](C)O)N(C)C1 [Lincomycin]	R	R	R	
COc1cccc(OC)c1C(=O)N[C@@H]1C(=O)N2[C@@H]1SC(C)(C)[C@@H]2C(=O)O [Methicillin]	R	S	S	
CCn1cc(C(=O)O)c(=O)c2ccc(C)nc21 [Nalidixic acid]	S	S	S	
CC1COc2c(N3CCN(C)CC3)c(F)cc3c(=O)c(C(=O)O)cn1c23 (stereo not shown) [Oflaxacin]	S	S	S	S
CCn1cc(C(=O)O)c(=O)c2cnc(N3CCNCC3)nc21 [Pipemidic acid]	S	S	S	
[H]/N=C(/N)N[C@H]1[C@H](O)[C@@H](O)[C@H](O[C@@H]2O[C@@H](C)[C@](O)(C=O)[C@H]2O[C@@H]2O[C@@H](CO)[C@H](O)[C@@H](O)[C@@H]2NC)[C@@H](N/C(N)=N\[H])[C@@H]1O [Streptomycin]	S	R	S	
COc1cc(Cc2cnc(N)nc2N)cc(OC)c1OC [Trimethoprim]	R	S	S	
CN[C@H](CC(C)C)C(=O)N[C@H]1C(=O)N[C@@H](CC(N)=O)C(=O)N[C@H]2C(=O)N[C@H]3C(=O)N[C@H](C(=O)N[C@H](C(=O)O)c4cc(O)cc(O)c4-c4cc3ccc4O)[C@H](O)c3ccc(c(Cl)c3)Oc3cc2cc(c3O[C@@H]2O[C@H](CO)[C@@H](O)[C@H](O)[C@H]2O[C@H]2C[C@](C)(N)[C@H](O)[C@H](C)O2)Oc2ccc(cc2Cl)[C@H]1O [Vancomycin]	R	R	R	
Neomycin	S	S	S	S
